According to patent US10167262B2, “Herbicidal substituted 3-arylpyrazoles” (FMC CORPORATION, priority 2014, dated 2019):
Where two headings read alike, the source gives them in different places.

Assays:
Format in all cases: in vivo
[1] = system: velvetleaf (Abutilon theophrasti); experiment: Test A pre-/postemergence greenhouse herbicide test, visual injury rating 0-100; settings: for pest or weed control at 500 g/ha: 500 g ai/ha
How it was run: (§1)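 Scale 0–100 (none to complete control), visual, versus untreated controls after approx. 10 greenhouse days. Pre: directed soil spray at planting. Post: 2–10 cm, one- to two-leaf plants. Non-phytotoxic solvent plus surfactant vehicle.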

[2] = system: wheat (Triticum aestivum); experiment: as above; settings: for plant injury at 500 g/ha: 500 g ai/ha
How it was run: as §1

[3] = system: large (Lg) crabgrass (Digitaria sanguinalis); experiment: as above; settings: for pest or weed control at 500 g/ha: 500 g ai/ha
How it was run: as §1

[4] = system: barnyardgrass (Echinochloa crus-galli); experiment: as above; settings: for pest or weed control at 500 g/ha: 500 g ai/ha
How it was run: as §1

corn (Zea mays) = experiment: as above; settings: for plant injury at 500 g/ha: 500 g ai/ha
How it was run: as §1

[5] = system: pigweed (Amaranthus retroflexus); experiment: as above; settings: for pest or weed control at 500 g/ha: 500 g ai/ha
How it was run: as §1

[6] = system: giant foxtail (Setaria faberii); experiment: as above; settings: for pest or weed control at 500 g/ha: 500 g ai/ha
How it was run: as §1

[7] = system: morningglory (Ipomoea spp.); experiment: as above; settings: for pest or weed control at 500 g/ha: 500 g ai/ha
How it was run: as §1

[8] = system: velvetleaf (Abutilon theophrasti); experiment: Test C pre-/postemergence greenhouse test, plant response rating 0-100; settings: Abutilon theophrasti; for pest or weed control at 62 g/ha: 62 g ai/ha; for pest or weed control at 125 g/ha: 125 g ai/ha; for pest or weed control at 250 g/ha: 250 g ai/ha
How it was run: (§2)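 Visual 0–100 control scores, taken 13 to 15 days post-application in a greenhouse, reflect treatment preemergence (seed in loam soil with sand) or postemergence (2–18 cm plants in peat moss, vermiculite medium). A dash marks no result.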

[9] = system: lambsquarters (Chenopodium album); experiment: as above; settings: Chenopodium album; for pest or weed control at 62 g/ha: 62 g ai/ha; for pest or weed control at 125 g/ha: 125 g ai/ha; for pest or weed control at 250 g/ha: 250 g ai/ha
How it was run: as §2

[10] = system: johnsongrass (Sorghum halepense); experiment: as above; settings: Sorghum halepense; for pest or weed control at 62 g/ha: 62 g ai/ha; for pest or weed control at 125 g/ha: 125 g ai/ha; for pest or weed control at 250 g/ha: 250 g ai/ha
How it was run: as §2

[11] = system: morningglory (Ipomoea coccinea); experiment: as above; settings: Ipomoea; for pest or weed control at 62 g/ha: 62 g ai/ha; for pest or weed control at 125 g/ha: 125 g ai/ha; for pest or weed control at 250 g/ha: 250 g ai/ha
How it was run: as §2

[12] = post-emergence, Postemergence, read-out: Plant response rating (0 to 100), Velvetleaf
[13] = post-emergence, Postemergence, scale 0 to 100
[14] = pre-emergence, Preemergence, read-out: Plant response rating, Velvetleaf
[15] = pre-emergence, Preemergence, 500 g ai/ha
[16] = post-emergence, Postemergence, read-out: Plant response rating (0 to 100), Lambsquarters
[17] = pre-emergence, Preemergence, read-out: Plant response rating, Lambsquarters
[18] = post-emergence, Postemergence, read-out: Plant response rating (0 to 100), Johnsongrass
[19] = pre-emergence, Preemergence, read-out: Plant response rating, Johnsongrass
[20] = post-emergence, Postemergence, read-out: Plant response rating (0 to 100), Morningglory
[21] = pre-emergence, Preemergence, read-out: Plant response rating, Morningglory

SMILES: Cn1cc(C(=O)c2ccccc2)c(-c2cc(Cl)cc(Cl)c2)n1 [Compound 54, [3-(3,5-dichlorophenyl)-1-methyl-1H-pyrazol-4-yl]phenylmethanone]
- pest or weed control at 125 g/ha ([1]; Abutilon theophrasti, post-emergence, 240 h, Postemergence, 125 g ai/ha, read-out: Plant response rating (0 to 100 scale), Velvetleaf): 90%
- pest or weed control at 500 g/ha ([1]; Abutilon theophrasti, post-emergence, 240 h, Postemergence, read-out: Plant response rating (0 to 100 scale), Velvetleaf): 100%
- pest or weed control at 500 g/ha ([1]; Abutilon theophrasti, pre-emergence, 240 h, Preemergence, read-out: Plant response rating (0 to 100 scale), Velvetleaf): 60%
- Velvetleaf plant response rating (0 = no effect, 100 = complete control) ([1]; Preemergence, 125 g ai/ha): 30
- Wheat plant response rating (0 = no effect, 100 = complete control) ([2]; Preemergence, 125 g ai/ha): 0
- plant injury at 125 g/ha ([2]; Triticum aestivum, post-emergence, 240 h, Postemergence, 125 g ai/ha, read-out: Plant response rating (0 to 100 scale), Wheat): 0%
- plant injury at 500 g/ha ([2]; Triticum aestivum, post-emergence, 240 h, Postemergence, read-out: Plant response rating (0 to 100 scale), Wheat): 0%
- plant injury at 500 g/ha ([2]; Triticum aestivum, pre-emergence, 240 h, Preemergence, read-out: Plant response rating (0 to 100 scale), Wheat): 0%
- pest or weed control at 125 g/ha ([3]; Digitaria sanguinalis, post-emergence, 240 h, Postemergence, 125 g ai/ha, read-out: Plant response rating (0 to 100 scale), Crabgrass, Large): 0%
- pest or weed control at 500 g/ha ([3]; Digitaria sanguinalis, post-emergence, 240 h, Postemergence, read-out: Plant response rating (0 to 100 scale), Crabgrass, Large): 0%
- pest or weed control at 500 g/ha ([3]; Digitaria sanguinalis, pre-emergence, 240 h, Preemergence, read-out: Plant response rating (0 to 100 scale), Crabgrass, Large): 0%
- Crabgrass, Large plant response rating (0 = no effect, 100 = complete control) ([3]; Preemergence, 125 g ai/ha): 0
- pest or weed control at 125 g/ha ([4]; Echinochloa crus-galli, post-emergence, 240 h, Postemergence, 125 g ai/ha, read-out: Plant response rating (0 to 100 scale), Barnyardgrass): 0%
- pest or weed control at 500 g/ha ([4]; Echinochloa crus-galli, post-emergence, 240 h, Postemergence, read-out: Plant response rating (0 to 100 scale), Barnyardgrass): 0%
- pest or weed control at 500 g/ha ([4]; Echinochloa crus-galli, pre-emergence, 240 h, Preemergence, read-out: Plant response rating (0 to 100 scale), Barnyardgrass): 0%
- Barnyardgrass plant response rating (0 = no effect, 100 = complete control) ([4]; Preemergence, 125 g ai/ha): 0
- Corn plant response rating (0 = no effect, 100 = complete control) (corn (Zea mays); Preemergence, 125 g ai/ha): 0
- plant injury at 125 g/ha (corn (Zea mays); Zea mays, post-emergence, 240 h, Postemergence, 125 g ai/ha, read-out: Plant response rating (0 to 100 scale), Corn): 0%
- plant injury at 500 g/ha (corn (Zea mays); Zea mays, post-emergence, 240 h, Postemergence, read-out: Plant response rating (0 to 100 scale), Corn): 0%
- plant injury at 500 g/ha (corn (Zea mays); Zea mays, pre-emergence, 240 h, Preemergence, read-out: Plant response rating (0 to 100 scale), Corn): 0%
- pest or weed control at 125 g/ha ([5]; Amaranthus retroflexus, post-emergence, 240 h, Postemergence, 125 g ai/ha, read-out: Plant response rating (0 to 100 scale), Pigweed): 90%
- pest or weed control at 500 g/ha ([5]; Amaranthus retroflexus, post-emergence, 240 h, Postemergence, read-out: Plant response rating (0 to 100 scale), Pigweed): 100%
- pest or weed control at 500 g/ha ([5]; Amaranthus retroflexus, pre-emergence, 240 h, Preemergence, read-out: Plant response rating (0 to 100 scale), Pigweed): 90%
- Pigweed plant response rating (0 = no effect, 100 = complete control) ([5]; Preemergence, 125 g ai/ha): 50
- Foxtail, Giant plant response rating (0 = no effect, 100 = complete control) ([6]; Preemergence, 125 g ai/ha): 0
- pest or weed control at 125 g/ha ([6]; Setaria faberi, post-emergence, 240 h, Postemergence, 125 g ai/ha, read-out: Plant response rating (0 to 100 scale), Foxtail, Giant): 0%
- pest or weed control at 500 g/ha ([6]; Setaria faberi, post-emergence, 240 h, Postemergence, read-out: Plant response rating (0 to 100 scale), Foxtail, Giant): 0%
- pest or weed control at 500 g/ha ([6]; Setaria faberi, pre-emergence, 240 h, Preemergence, read-out: Plant response rating (0 to 100 scale), Foxtail, Giant): 0%
- pest or weed control at 125 g/ha ([7]; Ipomoea, post-emergence, 240 h, Postemergence, 125 g ai/ha, read-out: Plant response rating (0 to 100 scale), Morningglory): 0%
- pest or weed control at 500 g/ha ([7]; Ipomoea, post-emergence, 240 h, Postemergence, read-out: Plant response rating (0 to 100 scale), Morningglory): 0%
- pest or weed control at 500 g/ha ([7]; Ipomoea, pre-emergence, 240 h, Preemergence, read-out: Plant response rating (0 to 100 scale), Morningglory): 0%
- Morningglory plant response rating (0 = no effect, 100 = complete control) ([7]; Preemergence, 125 g ai/ha): 0
- pest or weed control at 62 g/ha [8, 12]: 80%
- pest or weed control at 125 g/ha [8, 12]: 85%
- pest or weed control at 250 g/ha [8, 13]: 100%
- pest or weed control at 62 g/ha [8, 14]: 45%
- pest or weed control at 125 g/ha [8, 14]: 55%
- pest or weed control at 250 g/ha ([8]; pre-emergence, Preemergence): 60%
- pest or weed control at 500 g/ha [8, 15]: 80%
- pest or weed control at 62 g/ha [9, 16]: 50%
- pest or weed control at 125 g/ha [9, 16]: 55%
- pest or weed control at 250 g/ha [9, 13]: 55%
- pest or weed control at 62 g/ha [9, 17]: 30%
- pest or weed control at 125 g/ha [9, 17]: 40%
- pest or weed control at 250 g/ha ([9]; pre-emergence, Preemergence): 50%
- pest or weed control at 500 g/ha [9, 15]: 100%
- pest or weed control at 62 g/ha [10, 18]: 0%
- pest or weed control at 125 g/ha [10, 18]: 0%
- pest or weed control at 250 g/ha [10, 13]: 0%
- pest or weed control at 62 g/ha [10, 19]: 0%
- pest or weed control at 125 g/ha [10, 19]: 0%
- pest or weed control at 250 g/ha ([10]; pre-emergence, Preemergence): 0%
- pest or weed control at 500 g/ha [10, 15]: 0%
- pest or weed control at 62 g/ha [11, 20]: 0%
- pest or weed control at 125 g/ha [11, 20]: 0%
- pest or weed control at 250 g/ha [11, 13]: 0%
- pest or weed control at 62 g/ha [11, 21]: 0%
- pest or weed control at 125 g/ha [11, 21]: 0%
- pest or weed control at 250 g/ha ([11]; pre-emergence, Preemergence): 15%
- pest or weed control at 500 g/ha [11, 15]: 40%
